A word on the melting point: it is the temperature of the solid-liquid transition. The compound `CCc1nc2c(C)cc(C)nc2n1Cc1ccc(C(=C(Br)c2nnn[nH]2)c2ccccc2)cc1` gave a melting point of 149 to 151 °C.

For `O=C(C=Cc1ccc(C(F)(F)F)cc1)N1CCc2c([nH]c3ccccc23)C1c1ccc2c(c1)OCO2` (configuration not stated), the melting point turned out to be 233 °C.

`COc1cccc2c1C[C@@H](NC=O)CC2`: the melting point fell in the range of 140 to 141 °C.

As to `O=c1nc(NCCCOc2cc(CN3CCCCC3)ccn2)c2ccccc2[nH]1`, the melting point was 189 to 192 °C.

On to `CN1CCN(C2Cc3ccc(Cl)cc3Sc3cc(F)ccc32)CC1` (configuration not stated), for which the melting point lay in the range of 156 to 158 °C.

Compound `O=C(Nc1ccc(O)cc1)c1ccc(OC2CCCCO2)cc1` (configuration not stated) yielded a melting point of 173 to 174 °C.

`CN(C)C(=O)N(NC(=O)C(F)(F)F)c1ccc(Cl)cc1Cl`: the melting point was 137 to 138 °C.

Compound `COCc1nc2c(N)nc3ccccc3c2n1Cc1ccccc1` had a melting point of 202 to 204 °C.

In turn, `CC(=O)Nc1c(C(=O)c2cccc(C#N)c2)[nH]c2cc(Cl)ccc12` returned a melting point of 185 to 187 °C.

Compound `COc1ccc2c(c1)c(C=C1SC(=S)N(CC(=O)O)C1=O)c(C)n2C(=O)c1ccc(Cl)cc1` displayed a melting point of 204 to 208 °C.

`COC1c2ccccc2CSc2ccc(Br)cc21` (configuration not stated) yielded a melting point of 68 to 71 °C.

Consider `O=C(NC(=NCCCOc1ccccc1)Oc1ccccc1)c1ccccc1`, for which the melting point was 75 °C.

On to `O=C(O)c1ccc(C=C(C(=O)C2CC2)C(=O)C2CC2)cc1`, for which the melting point lay in the range of 175 to 178 °C.

Compound `NS(=O)(=O)c1c(Cl)cccc1-c1ccccc1Cl` displayed a melting point of 151 to 153 °C.

`Nc1cccc2c3c([nH]c12)C(=O)CCC3` returned a melting point of 233 to 234 °C.

Consider `Cc1ccccc1C(=O)Nc1ccc(C(=O)N2CCCC(n3cccc3)c3ccccc32)cc1` (configuration not stated), for which the melting point is 208 to 210 °C.

Turning to `Cn1c(C(F)(F)F)cc(=O)n(-c2cc(OC(=O)NC3CCCCC3)c(Cl)cc2F)c1=O`, the melting point was in the range of 171 to 173 °C.

`CC(C(=O)O)c1ccc(C(=O)c2cc3ccsc3s2)cc1` (configuration not stated) came in with a melting point of 150 °C.

On to `N#Cc1ccc(N2CCC(=O)CC2)cc1`, for which the melting point lay in the range of 100 to 101 °C.

For the compound `CCOC(=O)c1ccc(NC(=O)CC2c3ccccc3Sc3ccccc32)cc1`, the melting point was 184 to 186 °C.

The compound `CC(=O)SCCCCCCCCCCCOCCOCCOCCOc1ccc(OCc2ccccc2)cc1` gave a melting point of 55 to 57 °C.

With `O=S(=O)(c1ccc(Cl)cc1)C(c1cc(F)ccc1F)C1CCCCC1` (configuration not stated), the melting point was 107 to 109 °C.

Take `O=C(OC1CCCCCC1)c1ncn2c1[C@@H]1CCCN1C(=O)c1c(Cl)cccc1-2`: the melting point was in the range of 179 to 180 °C.

`NC(=O)c1cc2c(Oc3ccc(C(=O)NCCN4CCOCC4)cc3)cncc2s1` registered a melting point of 214 to 216 °C.

Compound `CC(=O)c1ccc(NC(=O)NCC2(c3ccccc3)CCCCC2)cc1` returned a melting point of 164 to 165 °C.

Turning to `CCCCCCCCC1OC(=O)c2cc(NC(C)=O)ccc21` (configuration not stated), the melting point fell in the range of 133 to 134 °C.

In the case of `Cn1c(CCN2CCC(c3ccccc3)CC2)nc2cc(Br)c3ccccc3c21`, the melting point lay within 182 to 184 °C.

In turn, `CC(C)(C)c1cc(-c2ccc(NC(=O)CCCC(=O)O)cc2)cc(C(C)(C)C)c1O` displayed a melting point of 218 to 219 °C.

`O=S(=O)(Cc1cccc2ccccc12)c1ccccc1` registered a melting point of 89 °C.

`O=C1CCCN1CCCn1c(=O)[nH]c2ncc(-c3ccc(O)cc3)nc21` showed a melting point of 305 to 306 °C.

`NS(=O)(=O)c1cccc(-c2cn(-c3nc(-c4ccc(Cl)s4)cc(C(F)(F)F)n3)cn2)c1` gave a melting point of 189 °C.

For the compound `NC(=O)C(Sc1ccccc1)c1cccc(C(=O)c2ccc(Cl)cc2)c1N` (configuration not stated), the melting point lay in the range of 189 to 191 °C.

The compound `CCCCC(CC(=O)Nc1cc(C(N)=O)ccc1C(C)(C)C)c1ccc(OCCCOC)cc1OC` (configuration not stated) displayed a melting point of 157 to 162 °C.

`O=C(O)COc1ccc(C2=CC(=O)CC(c3ccc(F)cc3)C2)c(Cl)c1Cl` (configuration not stated) came in with a melting point of 190 to 192 °C.

`CCOP(=O)(OCC)C(C)NC(=O)c1cc(C)cc(OC)c1C1=CC(=O)c2c(O)cccc2C1=O` (configuration not stated) came in with a melting point of 130 to 132 °C.

Consider `c1ccc2c(OCCCCCCCCOc3cccc4ccccc34)cccc2c1`, for which the melting point amounted to 60 °C.

The compound `COc1ccc(Cl)cc1N1CCN(CCCNC(=O)c2cccc3c(=O)c(C)c(C(N)=O)oc23)CC1` showed a melting point of 184 to 192 °C.

In turn, `CN(C)Cc1ccc(NC(=O)C2=Cc3cc(-c4ccccc4)ccc3CC2)cc1` came in with a melting point of 182 to 184 °C.

Regarding `O=C(CCCCC1CCSS1)n1ccnc1` (configuration not stated), the melting point is 37 to 39 °C.

Consider `CCCCCCOc1ccc(NC(=O)CC(=O)C(C)(C)C)cc1`, for which the melting point lay in the range of 70 to 72 °C.

Turning to `COc1cccc2c1Sc1ccccc1C21CCN(C#N)CC1`, the melting point was in the range of 145 to 146 °C.

The compound `CCCCc1cccnc1NC=C(C#N)C(=O)OCC` gave a melting point of 98.5 to 99.5 °C.

For `O=C(O)[C@H](Cc1ccccc1)N[C@@H](Cc1c[nH]c2ccccc12)C(=O)OCc1ccccc1`, the melting point fell in the range of 147 to 150 °C.

Compound `C=CCc1cc(C2=NNC(=O)CC2)ccc1O` registered a melting point of 240 to 244 °C.

On to `O=C(O)CN1C(=O)CN(Cc2ccccc2)C1=O`, for which the melting point fell in the range of 125 to 127 °C.

The compound `COC(=O)N(c1cc(C)ccc1C(=O)c1ccc(F)cc1)C(C)C` came in with a melting point of 92 to 94 °C.

As for `COc1cc2c(cc1Nc1ncc(Cl)c(Nc3ccc(OC)c4c3C(=O)N(C)C4)n1)CCN(CC(=O)N(C)C)CC2`, the melting point fell in the range of 202 to 203 °C.

As for `CCOC(=O)C1=C(C)Nc2cc[nH]c(=O)c2C1c1cccs1` (configuration not stated), the melting point fell in the range of 284 to 285 °C.

With `COc1ccc(-c2nc3cc(Cl)cc(C#CCN(OC(=O)OC(C)(C)C)C(=O)OC(C)(C)C)c3o2)cc1OC1CCCC1`, the melting point lay within 144 to 146 °C.

For the compound `COC(=O)CS(=O)C(C)c1ccc(-c2ccccc2F)cc1` (configuration not stated), the melting point came to 79 °C.

In turn, `CC1Cc2cc3c(cc2C(c2ccc(NC=O)cc2)=NN1C=O)OCO3` (configuration not stated) gave a melting point of 193 to 195 °C.

The compound `Cc1ccccc1-n1c(CF)nc2ccc(N)cc2c1=O` had a melting point of 195 to 196 °C.

Consider `CNC(=O)c1snc(-c2cccc(C(F)(F)F)c2)c1N`, for which the melting point came out at 113 °C.

`O=C(Nc1cn(C2CCCCO2)nc1C(=O)NCCCO)c1ccccn1` (configuration not stated) displayed a melting point of 139 to 140 °C.

On to `COc1cc(OC)nc(NC(=O)N=NS(=O)(=O)C2OCCN2C)n1` (configuration not stated), for which the melting point lay within 174 to 175 °C.

`CC(=O)N(C(C)=O)c1c(OCc2ccccc2)cc(Br)cc1[N+](=O)[O-]` had a melting point of 148 °C.

Compound `CCN1c2ncccc2C(=O)N(C)c2ccc(-c3cnn(C(C)=O)c3)nc21` registered a melting point of 186 to 188 °C.

The compound `C=CCC(C(=O)O)c1ccccc1` (configuration not stated) registered a melting point of 34 °C.

Compound `Cc1nc(N2CCN(Cc3cccc(C(F)(F)F)c3)C2=O)sc1C(=O)NCc1cccnc1` showed a melting point of 175 to 176 °C.

The compound `CON=C(C(N)=NO)c1ccccc1COc1ccccc1C` returned a melting point of 110 to 112 °C.

As for `OC1(Cc2ccccc2)CCN(CCC(c2ccccc2)(c2ccccc2)c2ccccc2)CC1`, the melting point lay within 72 to 74 °C.

`O=C(NCCCOc1ccncc1)c1cccs1` gave a melting point of 123 to 125 °C.

Compound `COc1ccc(C=N[C@H]2COc3c(F)ccc(OC)c3C2)cc1` came in with a melting point of 96.8 to 97.3 °C.

In turn, `CC(=O)OCCCC(C(=O)C=Cc1ccc(O)c(OC(F)(F)F)c1)C(=O)C=Cc1ccc(O)c(OC(F)(F)F)c1` (configuration not stated) yielded a melting point of 130 to 131 °C.

Take `CCOC(=O)N1CCc2nc(-c3ccncn3)cc(=O)n2CC1`: the melting point was in the range of 144 to 146 °C.

Regarding `COC12CC(COS(=O)(=O)c3ccc(C)cc3)CN(C)C1Cc1cn(C(C)(C)C)c3cccc2c13` (configuration not stated), the melting point lay in the range of 150 to 152 °C.

As to `CN(C)C=Nc1nc2c(s1)C(=O)C(=CN(C)C)CC2`, the melting point is 185 to 186 °C.

For `COc1nc(C)c(CCN2CC=C(c3c[nH]c4ccccc34)CC2)c(=O)n1C`, the melting point was in the range of 209 to 211 °C.

Compound `CCCCn1c(=O)c2c(ncn2S(=O)(=O)c2cccc([N+](=O)[O-])c2)n(CCCC)c1=O` came in with a melting point of 178 to 179 °C.

`CCCC(C(N)=O)n1cc(C)c(-c2ccccc2)n1` (configuration not stated) returned a melting point of 116 to 118 °C.

With `CC(C)c1nn(-c2ccc(C(F)(F)F)cn2)cc1C=O`, the melting point was in the range of 89 to 90 °C.

As to `CC(C)C(=O)c1c(C2CC2)nn2ccccc12`, the melting point is 108 to 109 °C.

`CC(C)(Cc1ccc(OCCCC(=O)O)cc1)NCC(O)c1cc(O)cc2c1OCC(=O)N2` (configuration not stated): the melting point lay within 201 to 204 °C.

Compound `Cc1ccc(N2N=C3c4cc(OCCCN(C)C)ccc4CCC3CC2=O)cc1` (configuration not stated) registered a melting point of 159 to 162 °C.

Turning to `COc1ccc2c(c1)c(OC(C)C)c(C(=O)Nc1ccccc1O)n2-c1ccccc1`, the melting point fell in the range of 168 to 170 °C.

`ClC(c1ccccc1)(c1ccccc1)c1ccncc1` gave a melting point of 84.5 to 86.5 °C.

Consider `CC1NN(Cc2ccc(Cl)cc2)C(=O)NC1=O` (configuration not stated), for which the melting point turned out to be 155 °C.

`COc1cc(C=O)c2oc(-c3ccc(OC)c(F)c3)cc2c1` had a melting point of 161 to 163 °C.

Take `O=C1c2cc3ccccc3cc2OC12CC2`: the melting point lay in the range of 127 to 129 °C.

Regarding `Cc1cc(-c2cc(CBr)c(=O)n(Cc3ccccc3Cl)n2)ccc1F`, the melting point was 113 to 115 °C.

`CC(=O)Nc1ccc(Sc2c(NCC3CC3)cc(C(=O)O)cc2S(N)(=O)=O)cc1` showed a melting point of 200 to 204 °C.

Consider `COCCN1CCN(CCc2ccc(Nc3ncc4c(n3)-c3ccccc3C(c3ccc(Cl)c(Cl)c3)C4)cc2)CC1` (configuration not stated), for which the melting point is 121 to 122 °C.

In the case of `CC(C)Cn1c(=O)n(C)c(=O)c2c(SCCCO)c(C(O)c3cccc4ccccc34)sc21` (configuration not stated), the melting point was 100 to 105 °C.

Turning to `CCOC(=O)C(C)(C)Oc1ccc(OCCn2c(=O)sc3cc(C(=O)c4ccccc4)ccc32)cc1`, the melting point is 120 to 121 °C.

With `N#CCc1ccc2onc(-c3ccc(Cl)cc3)c2c1`, the melting point amounted to 118 °C.

`CCOC(=O)c1ccc(-c2ccc(-c3ccccc3)c(-c3cc4c(cc3O)C(C)(C)CCC4(C)C)c2)cc1` came in with a melting point of 145 °C.

Compound `O=[N+]([O-])c1ccc(SCc2cnc3ccccn23)cc1` had a melting point of 174 to 175 °C.

The values above are taken from a melting point compilation (Tetko et al.; mined from patent text by program, amines drawn as free bases though some values may be those of a salt).
